In US20250032651A1, “[177LU] LUTETIUM-PSMA I&T COMPOSITION AND DOSIMETRY, KIT, METHOD OF MAKING, AND METHOD OF USING THEREOF” (Curium US LLC, priority 2022, published 2025):

Test: Normal organ dosimetry Cycle 1: SPECT/CT, TIACs, OLINDA 2.2.3 absorbed radiation dose
Format: in vivo, human
Settings: for Absorbed Dose, Mean / Absorbed Dose, max / Absorbed Dose, median / Absorbed Dose, min: n = 26
Procedure: This Example presents the biodistribution, dosimetry, and pharmacokinetics (PK) results of a PK/Dosimetry sub-study performed as part of a Phase III trial. Twenty-seven (27) patients were administered a target activity of 7.4±10% GBq of ^177Lu-PSMA-I&T and underwent single photon emission computed tomography (SPECT)/computed tomography (CT) imaging at four timepoints (4 h, 24 h, 48 h, and 168 h). Image data was analysed to compute time-activity curves (TACs) and subsequently time-integrated activity coefficients (TIACs) in each organ of interest and in organs showing appreciable and meaningful ^177Lu-PSMA-I&T activity. Organ Level Internal Dose Assessment (OLINDA 2.2.3) was used to compute organ and whole body absorbed radiation doses for each patient.
All participating sites underwent a rigorous site setup process during which all dose calibrators, scanners, and gamma counters used in the sub-study were calibrated. Sites were allowed to enroll patients in the sub-study only after the completion and approval of all site setup processes by Invicro. Patients underwent SPECT/CT imaging, with anatomical coverage typically extending from the salivary glands to the pelvis, following the administration of a targeted 7.4±10% GBq of ^177Lu-PSMA-I&T at cycle 1. SPECT/CT imaging was performed at four timepoints: 4 h, 24 h, 48 h, and 168 h post-injection. Additionally, a subset of patients imaged at Cycle 1 (16 out of 27), were also imaged at Cycle 3 (Table 2).
The imaging data was analyzed using Invicro's VivoQuant software, a validated software used in a 21 CFR § 11-compliant workflow. The general quantification approach was based on the principles detailed in the Medical Internal Radiation Dose (MIRD) Pamphlet No. 16, No 23, and No 26 as appropriate.
Volume of interest (VOI) (kidneys, bladder, liver, lumbar vertebrae L2-L4, lacrimal glands, salivary glands [parotid and submandibular glands], and whole body) were delineated on each dataset by a trained image analyst. […] Organs were segmented either by drawing the entire contour of the organ, or by placing a sphere in a representative region of the organ and then multiplying by the organ's effective mass (based on patient's height and weight). Segmentation methods for each organ are specified in Table 3 and were consistently applied to each patient.
Clearance of the radiopharmaceutical was derived from a data-appropriate fit of each organ's TAC. Depending on the TAC's shape, the data was fitted with the sum of one, two, or three exponentials, or using a rise and fall model. Fitting was performed with in-house Python software. TIACs were calculated through analytical integration of the curve fit extrapolated to infinity. […] A whole-body TAC was derived from delineating the imaged body. The remainder activity was determined by subtracting the cumulative organ TIACs from the whole body TIAC.
Organ TIACs were input into OLINDA 2.2.3 for the computation of organ and whole-body absorbed doses, using International Commission on Radiological Protection (ICRP)-103 weighing factors. The ICRP-89 derived male phantom was used for dose estimation. Organs and body mass as defined by ICRP-89 were scaled based on height and mass using patient effective mass.^4 The voiding bladder model as implemented in OLINDA was used to determine bladder TIAC, assuming a voiding interval of 4 hours. The human alimentary tract model (HAT model) described in ICRP 100 and implemented in OLINDA was used to compute doses to the small intestine, right colon, left colon and rectum for patients showing clearance through the GI tract. The fraction of injected activity (fIA) cleared via the GI tract was determined by taking the peak fIA in the GI tract over all the imaging timepoints. […] The Red Marrow mass in L2-L4 was assumed to be 6.7% of the total red marrow mass.

[1] = Adrenals, 16 patients imaged at cycle 1 and 3
[2] = Brain, 16 patients imaged at cycle 1 and 3
[3] = Cycle 1, target activity 7.4±10% GBq, patients with mCRPC
[4] = Esophagus, 16 patients imaged at cycle 1 and 3
[5] = Eyes, 16 patients imaged at cycle 1 and 3
[6] = Gallbladder wall, 16 patients imaged at cycle 1 and 3
[7] = Heart wall, 16 patients imaged at cycle 1 and 3

O=C([O-])CC[C@H](NC(=O)N[C@@H](CCCCNC(=O)CCCCCCC(=O)NCCCC[C@@H](NC(=O)[C@@H](Cc1ccccc1)NC(=O)[C@@H](Cc1ccc(O)c(I)c1)NC(=O)CC[C@H](C(=O)[O-])N1CCN(CC(=O)[O-])CCN(CC(=O)[O-])CCN(CC(=O)[O-])CC1)C(=O)[O-])C(=O)[O-])C(=O)[O-].[177Lu+3].[H+].[H+].[H+].[H+].[H+] [^177Lu-PSMA I&T, (3S,7S,26R,29R,32R,37R)-29-benzyl-32-(4-hydroxy-3-iodobenzyl)-5,13,20,28,31,34-hexaoxo-37-(4,7,10-tris(carboxymethyl)-1,4,7,10-tetraazacyclododecan-1-yl)-4,6,12,21,27,30,33-heptaazaheptatriacontane-1,3,7,26,37-pentacarboxylic acid; lutetium-177 (III)]
Absorbed Dose in Cycle 1, Mean [1]: 0.02 Gy/GBq
Absorbed Dose in Cycle 1, max [1]: 0.08 Gy/GBq
Absorbed Dose in Cycle 1, min [1]: 0.01 Gy/GBq
Absorbed Dose, Mean (Adrenals, Cycle 1): 0.02 Gy/GBq
Absorbed Dose, max (Adrenals, Cycle 1): 0.08 Gy/GBq
Absorbed Dose, median (Adrenals, Cycle 1): 0.02 Gy/GBq
Absorbed Dose, min (Adrenals, Cycle 1): 0.01 Gy/GBq
Absorbed Dose in Cycle 1, Mean (Adrenals, N = 16): 0.02 Gy/GBq
Absorbed Dose in Cycle 1, max (Adrenals, N = 16): 0.08 Gy/GBq
Absorbed Dose in Cycle 1, min (Adrenals, N = 16): 0.01 Gy/GBq
Absorbed Dose in Cycle 1, Mean [2]: 0.01 Gy/GBq
Absorbed Dose in Cycle 1, max [2]: 0.07 Gy/GBq
Absorbed Dose in Cycle 1, min [2]: 0.00 Gy/GBq
Absorbed Dose, Mean (Brain, Cycle 1): 0.01 Gy/GBq
Absorbed Dose, max (Brain, Cycle 1): 0.07 Gy/GBq
Absorbed Dose, median (Brain, Cycle 1): 0.01 Gy/GBq
Absorbed Dose, min (Brain, Cycle 1): 0.00 Gy/GBq
Absorbed Dose in Cycle 1, Mean (Brain, N = 16): 0.01 Gy/GBq
Absorbed Dose in Cycle 1, max (Brain, N = 16): 0.07 Gy/GBq
Absorbed Dose in Cycle 1, min (Brain, N = 16): 0.00 Gy/GBq
mean red marrow (bone marrow) absorbed radiation dose (Cycle 1, image-based, L2-L4): 0.08±0.12 Gy/GBq
mean red marrow absorbed dose (Cycle 1, remaining 20 patients, excluding six high-marrow-dose cases and the superscan patient): 0.02±0.02 Gy/GBq
absorbed radiation dose, salivary glands (mean ± SD) (Cycle 1, target activity 7.4±10% GBq, patient 12-004 excluded): 0.19±0.16 Gy/GBq
absorbed radiation dose, kidneys (mean ± SD) [3]: 0.41±0.15 Gy/GBq
absorbed radiation dose, lacrimal glands (mean ± SD) [3]: 0.40±0.36 Gy/GBq
absorbed radiation dose, left colon (mean ± SD) [3]: 0.47±0.31 Gy/GBq
absorbed radiation dose, rectum (mean ± SD) [3]: 0.44±0.30 Gy/GBq
absorbed radiation dose, urinary bladder (mean ± SD) [3]: 0.41±0.05 Gy/GBq
Absorbed Dose in Cycle 1, Mean [4]: 0.01 Gy/GBq
Absorbed Dose in Cycle 1, max [4]: 0.07 Gy/GBq
Absorbed Dose in Cycle 1, min [4]: 0.00 Gy/GBq
Absorbed Dose, Mean (Esophagus, Cycle 1): 0.02 Gy/GBq
Absorbed Dose, max (Esophagus, Cycle 1): 0.07 Gy/GBq
Absorbed Dose, median (Esophagus, Cycle 1): 0.01 Gy/GBq
Absorbed Dose, min (Esophagus, Cycle 1): 0.00 Gy/GBq
Absorbed Dose in Cycle 1, Mean (Esophagus, N = 16): 0.01 Gy/GBq
Absorbed Dose in Cycle 1, max (Esophagus, N = 16): 0.07 Gy/GBq
Absorbed Dose in Cycle 1, min (Esophagus, N = 16): 0.00 Gy/GBq
Absorbed Dose in Cycle 1, Mean [5]: 0.01 Gy/GBq
Absorbed Dose in Cycle 1, max [5]: 0.07 Gy/GBq
Absorbed Dose in Cycle 1, min [5]: 0.00 Gy/GBq
Absorbed Dose, Mean (Eyes, Cycle 1): 0.01 Gy/GBq
Absorbed Dose, max (Eyes, Cycle 1): 0.07 Gy/GBq
Absorbed Dose, median (Eyes, Cycle 1): 0.01 Gy/GBq
Absorbed Dose, min (Eyes, Cycle 1): 0.00 Gy/GBq
Absorbed Dose in Cycle 1, Mean (Eyes, N = 16): 0.01 Gy/GBq
Absorbed Dose in Cycle 1, max (Eyes, N = 16): 0.07 Gy/GBq
Absorbed Dose in Cycle 1, min (Eyes, N = 16): 0.00 Gy/GBq
Absorbed Dose in Cycle 1, Mean [6]: 0.02 Gy/GBq
Absorbed Dose in Cycle 1, max [6]: 0.07 Gy/GBq
Absorbed Dose in Cycle 1, min [6]: 0.00 Gy/GBq
Absorbed Dose, Mean (Gallbladder wall, Cycle 1): 0.02 Gy/GBq
Absorbed Dose, max (Gallbladder wall, Cycle 1): 0.07 Gy/GBq
Absorbed Dose, median (Gallbladder wall, Cycle 1): 0.01 Gy/GBq
Absorbed Dose, min (Gallbladder wall, Cycle 1): 0.00 Gy/GBq
Absorbed Dose in Cycle 1, Mean (Gallbladder wall, N = 16): 0.02 Gy/GBq
Absorbed Dose in Cycle 1, max (Gallbladder wall, N = 16): 0.07 Gy/GBq
Absorbed Dose in Cycle 1, min (Gallbladder wall, N = 16): 0.00 Gy/GBq
Absorbed Dose in Cycle 1, Mean [7]: 0.01 Gy/GBq
Absorbed Dose in Cycle 1, max [7]: 0.07 Gy/GBq
Absorbed Dose in Cycle 1, min [7]: 0.00 Gy/GBq
Absorbed Dose, Mean (Heart wall, Cycle 1): 0.02 Gy/GBq
Absorbed Dose, max (Heart wall, Cycle 1): 0.07 Gy/GBq
Absorbed Dose, median (Heart wall, Cycle 1): 0.01 Gy/GBq
Absorbed Dose, min (Heart wall, Cycle 1): 0.00 Gy/GBq
Absorbed Dose in Cycle 1, Mean (Heart wall, N = 16): 0.01 Gy/GBq
Absorbed Dose in Cycle 1, max (Heart wall, N = 16): 0.07 Gy/GBq
